According to US8455240B2, “Use of thermophilic sulphate-reducing archaea for the implementation of a process for the degradation of hydrocarbons” (Institut de Recherche pour le Development (I.R.D.), priority 2005, dated 2013):
“And” between values parts separate entries of the source, which are not always exact repeats. Identical values can stand only once. Marks after values point to notes of the source that are not given here.

What was measured:
strain L-3 [1] = experiment: Sources of carbon and energy used by the strain L-3; type: cell-based, Archaeoglobus fulgidus CNCM I-3465 (strain L-3); conditions: for OD 580 nm Final / H2S (480 nm) / OD 580 nm Initial: thiosulphate as electron acceptor; for H2S (480 nm): unit from b126
Procedure: (§1) Experimentally, 4 ml of Cord-Ruwish reagent comprising 50 mmol/l of HCl and 5 mmol/l of CuSO4 are added to 0.1 ml of sample. Copper sulphate (CuSO4) by reacting with hydrogen sulphide (H2S), forms a copper sulphide precipitate (CuS) after the reaction: CuSO4+H2S→CuS+H2SO4
(§2) According to this method, the CuS is assayed by spectrophotometry at 480 nm. The readings are carried out against a blank constituted by 4 ml of Cord-Ruwish reagent.
The analysis and quantification of the metabolites are carried out by HPLC by measuring the disappearance of the substrate and the appearance of different metabolism products.
The study of the growth of the strain L-3 in the presence of different sources of carbon and energy was carried out with thiosulphate as an electron acceptor. The monitoring was carried out by estimation of the cell biomass (OD 580 nm), by assay of the sulphide production (Cord-Ruwish). The results were confirmed by HPLC analyses, and completed in certain cases by a CO2 assay.

strain L-3 [2] = experiment: Screening for hydrocarbon degradation, strain L-3 (sulphide production, Cord-Ruwish); type: cell-based, Archaeoglobus fulgidus CNCM I-3465 (strain L-3); conditions: for sulphide production (OD 480) 0 d: aromatics solubilized in HMN
Procedure: as §1, §2
(§3) The study of the hydrocarbon degradation abilities is an experiment which requires a particularly long incubation. Thus, it was carried out in Bellco tubes sealed with thick rubber stoppers.
(§4) For these experiments, tubes containing 10 ml of culture medium without substrate, are 10% inoculated, then the hydrocarbon is introduced by injection through the stopper.
(§5) The hydrocarbons chosen are model molecules belonging to the different classes of hydrocarbons, namely: • hexadecane (CH3(CH2)14CH3, C16), a saturated linear aliphatic hydrocarbon; • hexadecene (CH3(CH2)13CHCH2, C16:1), an unsaturated linear aliphatic hydrocarbon of biogenic origin; • dibenzothiophene (DBT, C12H8S), a sulphur-containing aromatic hydrocarbon.
(§6) The aliphatic hydrocarbons (C16; C16:1) are added to the corresponding tubes, at a rate of 0.04 ml/10 ml of culture medium. The aromatic hydrocarbons (DBT) are solubilized in 2,2,4,4,6,8,8-heptamethylnonane (HMN, C16H34) at a rate of 20 mg/ml of HMN, and 0.75 ml of this solution is injected into 10 ml of culture medium.
(§7) 3 tubes were produced for each test and control. The growth of the strains was monitored indirectly by the production of sulphide.
(§8) A subculture was carried out starting from the preceding experiment on naphthalene, DBT solubilized as previously in HMN, and on HMN alone, for the two strains studied.

Archaeoglobus fulgidus = experiment: Screening for hydrocarbon degradation, A. fulgidus (sulphide production, Cord-Ruwish); type: cell-based; conditions: for ΔS tf-ti: final minus initial sulphide; for sulphide production (OD 480) 0 d: aromatics solubilized in HMN
Procedure: as §1, §2, §3, §4, §5, §6, §7, §8

A. fulgidus = experiment: Subculture on hydrocarbons, A. fulgidus (sulphide production); type: cell-based, Archaeoglobus fulgidus
Procedure: as §1, §2, §8
(§9) For this subculture, apart from the tests containing the hydrocarbon (DBT, naphthalene (Naph), […]), and seeded with the previously chosen inoculum, abiotic controls (negative controls) containing the substrate (hydrocarbon) but not inoculated were produced for the purpose of quantifying the sulphide production which could be due to chemical reactions between the different constituents of the medium. In these controls there was no development in the concentration of sulphide over a period of 20 days (Table 4).

strain L-3 [3] = experiment: Subculture on hydrocarbons, strain L-3 (sulphide production); type: cell-based, Archaeoglobus fulgidus CNCM I-3465 (strain L-3)
Procedure: as §1, §2, §8, §9

strain L-3 [4] = experiment: Monitoring of thiosulphate during the degradation of fatty acids by L-3; type: cell-based, Archaeoglobus fulgidus CNCM I-3465 (strain L-3); conditions: time 0 (Feb. 5, 2005); E1/E2 replicates
Procedure: (§10) The thiosulphate and sulphate assays are carried out by ion chromatography.
(§11) The analyses are carried out with a chromatograph (Compact IC 761, Metrohm) equipped with: • A […] ion-exchange column (Metrosep A SUPP 1-250 (6.1005.300)), size 4.6*250 mm; • The eluent used is Na2CO3 at a concentration of 3 mmol/l, at a flow rate of 1 to 2.5 ml/min; ((→the flow rate varies during the analysis)) • A sample processor (Metrohm 838); • A conductimeter; • A computer where the results are recorded, integrated and analyzed by software (761 Compact IC, Metrohm). III.3.2. Operating Method
(§12) The operating conditions are such that the temperature is 20° C. and the pressure is 5 MPa. The samples to be analyzed are filtered. The injection volume is 20 μl. The detection is of conductimetric electrochemical type with chemical suppression allowing elution gradients.
(§13) Monitoring of thiosulphate during the degradation of fatty acids by A. fulgidus and by L-3

[5] = system: Archaeoglobus fulgidus DSM 4304; experiment: Monitoring of thiosulphate during the degradation of fatty acids by A. fulgidus; type: cell-based; conditions: E1/E2 replicates; for thiosulphate, time 0: time 0 (Jul. 4, 2005), butyrate, valerate 5 mM, others 2 mM
Procedure: as §10, §11, §12, §13

[6] = choice of the inoculum for the subculture, tubes of the screening

O=C[C@H](O)[C@H](O)[C@H](O)CO [Ribose, ribose]
HPLC analyses, initial quantity of the substrate (strain L-3 [1]; no increase in biomass or sulphide, explained by isomerization at high temperature): reduction in the initial quantity of the substrate
OD 580 nm Final (strain L-3 [1]): 0.3422 and 0.21
H2S (480 nm) (strain L-3 [1]): 0.6 mM and 0.5 mM

CC(=O)O [Acetate]
OD 580 nm Final (strain L-3 [1]): 0.0904 and 0.0812
OD 580 nm Initial (strain L-3 [1]): 0.0671 and 0.0771
H2S (480 nm) (strain L-3 [1]): 0.4 mM and 0.3 mM

c1ccc2c(c1)ccc1ccccc12 [Phenanthrene, phenanthrene]
sulphide production (OD 480) 45 d (strain L-3 [2]): 0.5 mM and 1 mM and 0.8 mM
sulphide production (OD 480) 60 d (strain L-3 [2]): 0.4 mM and 0.5 mM and 0.3 mM
sulphide production (OD 480) 70 d (strain L-3 [2]): 0.5 mM and 0.6 mM and 0.8 mM
ΔS tf-ti (strain L-3 [2]; final minus initial sulphide): ≤ 0.5 mM
sulphide production (OD 480) 10 d (Archaeoglobus fulgidus): 1.1 mM and 0.8 mM and 1.4 mM
sulphide production (OD 480) 60 d (Archaeoglobus fulgidus): 0.8 mM and 0.5 mM
ΔS tf-ti (Archaeoglobus fulgidus): ≤ 0.5 mM

c1ccc2ccccc2c1 [Naphthalene, naphthalene]
sulphide production (OD 480) 0 d (strain L-3 [2]): 0.8 mM and 0.6 mM
sulphide production (OD 480) 10 d (strain L-3 [2]; 10 d): 0.4 mM and 0.3 mM and 0.6 mM
sulphide production (OD 480) 45 d (strain L-3 [2]): 0.9 mM and 1 mM and 0.8 mM
sulphide production (OD 480) 60 d (strain L-3 [2]): 0.6 mM and 0.5 mM
sulphide production (OD 480) 70 d (strain L-3 [2]): 1.7 mM and 1.3 mM and 1.1 mM
H2S (strain L-3 [2]; [6]): 1.3 mM and 1.1 mM
sulphide production (OD 480) 0 d (A. fulgidus; 0 d): 0.2 mM
sulphide production (OD 480) 8 d (A. fulgidus; 8 d): 0.8 mM and 0.4 mM and 0.5 mM
sulphide production (OD 480) 0 d (strain L-3 [3]; 0 d): 0.2 mM (2×) and 0.3 mM
sulphide production (OD 480) 8 d (strain L-3 [3]; 8 d): 0.5 mM and 0.4 mM and 0.6 mM
sulphide production (OD 480) 22 d (strain L-3 [3]; 22 d): 0.9 mM and 0.5 mM and 0.8 mM
sulphide production (OD 480) 45 d (strain L-3 [3]; 45 d): 0.9 mM and 0.7 mM and 1.3 mM
ΔS tf-ti (strain L-3 [3]; final minus initial sulphide): 0.7 mM and 0.5 mM and 1 mM
sulphide production (OD 480) 0 d (Archaeoglobus fulgidus): 0.8 mM
sulphide production (OD 480) 10 d (Archaeoglobus fulgidus): 0.4 mM and 0.6 mM and 0.8 mM
sulphide production (OD 480) 45 d (Archaeoglobus fulgidus; 45 d): 0.8 mM and 1.1 mM and 1.4 mM
sulphide production (OD 480) 60 d (Archaeoglobus fulgidus): 0.7 mM and 1.2 mM
sulphide production (OD 480) 70 d (Archaeoglobus fulgidus): 1.3 mM and 1.7 mM
H2S (Archaeoglobus fulgidus; [6]): 1.3 mM and 1.7 mM
ΔS tf-ti (Archaeoglobus fulgidus): 0.5 mM and 0.9 mM

CCCCC(=O)O [valerate]
thiosulphate, time 0 (strain L-3 [4]): 13.95* mM
thiosulphate, end of May 2005 ([5]; listed as C5 fatty acid): 11.86 mM and 9.39 mM

CCCCCCCCCCCCCCCC(=O)O [palmitate]
thiosulphate, time 0 (strain L-3 [4]): 15.52 mM
thiosulphate, end of May 2005 [5]: 9.12 mM
thiosulphate, time 0 [5]: 11.54 mM

CCCCCCCCCCCCCCCC [C16, hexadecane]
sulphide production (OD 480) 0 d (strain L-3 [2]): 0.6 mM and 0.5 mM and 0.9 mM
sulphide production (OD 480) 0 d (Archaeoglobus fulgidus): 0.7 mM and 0.8 mM and 0.9 mM
sulphide production (OD 480) 70 d (Archaeoglobus fulgidus): 1 mM and 0.5 mM and 0.8 mM

CCCC(=O)O [butyrate]
thiosulphate, time 0 (strain L-3 [4]): 15.45 mM
thiosulphate, end of May 2005 [5]: 9.29 mM
thiosulphate, time 0 [5]: 12.51 mM

Gelatin
OD 580 nm Final (strain L-3 [1]): 0.0743 and 0.0767
OD 580 nm Initial (strain L-3 [1]): 0.0629 and 0.0894
H2S (480 nm) (strain L-3 [1]): 0.3 mM and 0.2 mM
